From US20250082633A1, “COMPOUNDS AND METHODS FOR MODULATING SPLICING” (REMIX THERAPEUTICS INC., priority 2021, published 2025)
Like-named read-outs stand apart in the source and are kept apart here.

Columns and labels:
Assay type in all cases: cell-based
K562 cells = experiment: Cell Titer Glo 2.0 cell viability assay; settings: Homo sapiens, 500 cells/well, 72 hours
Method in brief: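 K562 cells (500/well) in IMDM with 10% FBS were exposed to serially diluted compounds at 0.1% DMSO final. After 72 h at 37° C, 5% CO2, viability was read by CellTiter-Glo 2.0 luminescence, with medium-only blanks.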

SMN2 mRNA = experiment: RT-qPCR splicing assay, gene panel, SMN2 canonical junction (CJ) mRNA; settings: Homo sapiens; decrease in CJ mRNA levels; larger panel of genes; Table 3; read-out: SMN2 CJ IC50
Method in brief: (§1)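 A673 (DMEM/10% FBS) or K562 (IMDM/10% FBS) cells were treated 24 h at 37 °C with an 11-point 3-fold dilution series, top final 10 uM, DMSO ≤0.25%. Lysates underwent one-step RT-qPCR for the canonical-junction isoform with GAPDH, GUSB or PPIA as housekeeper. ΔΔCt versus DMSO was converted to RQ (2^−ΔΔCt), then to percent response.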

HTT mRNA = experiment: RT-qPCR splicing assay, HTT canonical (CJ) and alternative (AJ) junction mRNA; settings: Homo sapiens; for IC50: read-out: HTT CJ IC50; for AC50: increase in alternative junction mRNA, read-out: HTT AJ AC50
Method in brief: (§2)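 Splice-junction mRNAs (CJ, AJ) measured by TaqMan one-step RT-qPCR on cell lysates, using PPIA as reference for adherent A673 and GAPDH or GUSB for K562. Cells exposed for 24 h to 11 threefold concentrations up to 10 uM final, with DMSO at or below 0.25%.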

Target C = experiment: RT-qPCR splicing assay, gene panel, Target C canonical junction (CJ) mRNA; settings: Homo sapiens; decrease in CJ mRNA levels; larger panel of genes; Table 3; read-out: Target C CJ IC50
Method in brief: as §1

MYB mRNA = experiment: RT-qPCR splicing assay, MYB canonical (CJ) and alternative (AJ) junction mRNA; settings: Homo sapiens; for IC50: read-out: MYB CJ IC50; for AC50: increase in alternative junction mRNA, read-out: MYB AJ AC50
Method in brief: as §2

[1] = decrease in CJ mRNA levels, larger panel of genes, Table 3
[2] = decrease in canonical junction mRNA, A673 or K562 cells, 24 hours treatment, Table 2
[3] = A673 or K562 cells, 24 hours treatment, Table 2

Compound | GI50 (K562 cells) [µM] | IC50 (SMN2 mRNA) [µM] | IC50 (HTT mRNA; [1]) [µM] | IC50 (HTT mRNA; [2]) [µM] | AC50 (HTT mRNA; [3]) [µM] | IC50 (Target C) [µM] | IC50 (MYB mRNA; [1]) [µM] | IC50 (MYB mRNA; [2]) [µM] | AC50 (MYB mRNA; [3]) [µM]
Fc1cc(-c2ccc3ncccc3c2)cc2cn(C3CCNCC3)nc12 [Compound 162, 6-[7-fluoro-2-(4-piperidyl)indazol-5-yl]quinoline] | 1 to 10 | 1 to 10 | > 10 | > 10 | > 10 | > 10 | > 10 | > 10 | > 10
Cc1ccc2cc(-c3cc(F)c4nn(C5CCNCC5)cc4c3)ccc2n1 [Compound 163, 6-[7-fluoro-2-(4-piperidyl)indazol-5-yl]-2-methyl-quinoline] | 1 to 10 | 1 to 10 | > 10 | > 10 | > 10 | > 10 | > 10 | > 10 | > 10
Cc1ncc2cc(-c3cc(F)c4nn(C5CCNCC5)cc4c3)ccc2n1 [Compound 165, 6-[7-fluoro-2-(4-piperidyl)indazol-5-yl]-2-methyl-quinazoline] | > 10 | > 10 | > 10 | > 10 | > 10 | > 10 | > 10 | > 10 | > 10
Cc1cn2nc(-c3cc(F)c4nn(C5CCNCC5F)cc4c3)cc(C)c2n1 (stereo not drawn) [Compound 166, 6-[7-fluoro-2-(3-fluoro-4-piperidyl)indazol-5-yl]-2,8-dimethyl-imidazo [1,2-b]pyridazine] | 1 to 10 | < 0.1 | < 0.1 | < 0.1 | < 0.1 | 0.1 to 1 | 0.1 to 1 | 0.1 to 1 | 0.1 to 1
Cc1cn2nc(-c3cc(F)c4nn([C@H]5CCNC[C@@H]5F)cc4c3)cc(C)c2n1 [Compound 167, 6-(7-fluoro-2-((3S,4S)-3-fluoropiperidin-4-yl)-2H-indazol-5-yl)-2,8-dimethylimidazo[1,2-b]pyridazine] | 1 to 10 | < 0.1 | 0.1 to 1 | 0.1 to 1 | 0.1 to 1 | 0.1 to 1 | 1 to 10 | 1 to 10 | 1 to 10
Cc1cn2nc(-c3cc(F)c4nn([C@@H]5CCNC[C@H]5F)cc4c3)cc(C)c2n1 [Compound 168, 6-(7-fluoro-2-((3R,4R)-3-fluoropiperidin-4-yl)-2H-indazol-5-yl)-2,8-dimethylimidazo [1,2-b]pyridazine] | 0.1 to 1 | < 0.1 | < 0.1 | < 0.1 | 0.1 to 1 | 0.1 to 1 | 0.1 to 1 | 0.1 to 1 | 0.1 to 1
Cc1cn2nc(-c3cc(F)c4nn(C5CCNC6(CC6)C5)cc4c3)cc(C)c2n1 (stereo not drawn) [Compound 171, 6-[2-(4-azaspiro[2.5]octan-7-yl)-7-fluoro-indazol-5-yl]-2,8-dimethyl-imidazo[1,2-b]pyridazine] | 0.1 to 1 | < 0.1 | < 0.1 | < 0.1 | < 0.1 | < 0.1 | 0.1 to 1 | 0.1 to 1 | 0.1 to 1
Cc1cn2nc(-c3cc(F)c4nn([C@H]5CCNC6(CC6)C5)cc4c3)cc(C)c2n1 [Compound 172] | 0.1 to 1 | < 0.1 | < 0.1 | < 0.1 | < 0.1 | < 0.1 | < 0.1 | < 0.1 | < 0.1
Cc1cn2nc(-c3cc(F)c4nn([C@@H]5CCNC6(CC6)C5)cc4c3)cc(C)c2n1 [Compound 173] | 0.1 to 1 | < 0.1 | < 0.1 | < 0.1 | < 0.1 | 0.1 to 1 | 0.1 to 1 | 0.1 to 1 | 0.1 to 1
Cc1cn2nc(-c3cc(F)c4nn(C5CCN(C)C6(CC6)C5)cc4c3)cc(C)c2n1 (stereo not drawn) [Compound 174, 6-[7-fluoro-2-(4-methyl-4-azaspiro[2.5]octan-7-yl)indazol-5-yl]-2,8-dimethyl-imidazo[1,2-b]pyridazine] | 0.1 to 1 | < 0.1 | < 0.1 | < 0.1 | < 0.1 | < 0.1 | 0.1 to 1 | 0.1 to 1 | 0.1 to 1
